A word on the Ki: it is a dissociation constant, usually derived from enzyme kinetics or from competition with a known ligand. For orientation: EC50 means the concentration at which the effect is half-maximal.

The target in assay [1] is T1, Prostaglandin E2 receptor EP2 subtype (Homo sapiens, UniProt P43116). Briefly: Radioligand Binding Assay: The cell homogenate was centrifuged at 19000 r.p.m. for 20 min at 4° C. using a Beckman Ti-60 rotor. The resultant pellet was resuspended in TME buffer to give a final 1 mg/ml protein concentration, as determined by Biorad assay. Radioligand binding competition assays vs. [3H-]17-phenyl PGF2a , (5 nM) were performed in a 100 μl volume for 60 min. Binding reactions were started by adding plasma membrane fraction. The reaction was terminated by the addition of 4 ml ice-cold TRIS-HCl buffer and rapid filtration through glass fiber GF/B filters using a Brandel cell harvester. The filters were washed 3 times with ice-cold buffer and oven dried for one hour. [3H-] PGE2 (specific activity 180 Ci mmol) was used as the radioligand for EP receptors. [3H] 17-phenyl PGF2a, was employed for FP receptor binding studies. Binding studies employing EP1, EP2, EP4 and FP receptors were performed in duplicate in at least three separate experiments. A 200 μl assay volume was used. Incubations w. In kind it is cell-free.
T1 sequence (P43116 whole entry): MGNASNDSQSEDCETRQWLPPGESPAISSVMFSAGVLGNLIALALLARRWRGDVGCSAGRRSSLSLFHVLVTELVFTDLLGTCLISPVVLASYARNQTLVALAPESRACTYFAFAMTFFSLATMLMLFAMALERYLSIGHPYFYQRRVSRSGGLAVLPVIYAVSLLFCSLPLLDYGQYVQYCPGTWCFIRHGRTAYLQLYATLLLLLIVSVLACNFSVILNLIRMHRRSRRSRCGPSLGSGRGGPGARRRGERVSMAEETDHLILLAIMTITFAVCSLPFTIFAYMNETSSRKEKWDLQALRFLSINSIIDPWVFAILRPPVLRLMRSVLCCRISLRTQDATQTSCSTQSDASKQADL

In the next assay the target is T2, Thromboxane A2 receptor (Homo sapiens, UniProt P21731).
T2 sequence (P21731 whole entry): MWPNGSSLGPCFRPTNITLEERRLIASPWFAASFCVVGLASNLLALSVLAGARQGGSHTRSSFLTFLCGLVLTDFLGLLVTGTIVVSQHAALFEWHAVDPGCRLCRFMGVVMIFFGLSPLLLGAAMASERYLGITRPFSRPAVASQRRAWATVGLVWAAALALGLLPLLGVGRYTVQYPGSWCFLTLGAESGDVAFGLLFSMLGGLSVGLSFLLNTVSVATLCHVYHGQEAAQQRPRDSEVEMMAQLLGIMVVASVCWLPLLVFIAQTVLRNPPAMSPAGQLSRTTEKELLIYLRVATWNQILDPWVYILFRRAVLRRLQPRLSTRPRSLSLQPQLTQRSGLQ
Briefly: FLIPR Assay: Calciium Signal Studies of the Flipr. Cells were seeded at a density of 5×10^4 cells per well in Biocoati® Poly-D-lysine-coated black-wall, clear-bottom 96-well plates (Becton-Dickinson) and allowed to attach overnight in an incubator at 37° C. Cells were then washed two times with HBSS-HEPES buffer (Hanks Balanced Salt Solution without bicarbonate and phenol red, 20 mM HEPES, pH 7.4) using a Denley Cellwash plate washer (Labsystems). After 45 minutes of dye-loading in the dark, using the calcium-sensitive dye Fluo-4 AM at a final concentration of 2 μM, plates were washed four times with HBSS-HEPES buffer to remove excess dye leaving 100 μl in each well. Plates were re-equilibrated to 37° C. for a few minutes. Cells were excited with an Argon laser at 488 nm, and emission was measured through a 510-570 nm bandwidth emission filter (FLIPR, Molecular Devices, Sunnyvale, Calif.). Drug solution was added in a 50 μl volume to each well to give the desired final concentration. In kind it is functional.

The target of assay [2] is T1, Prostaglandin E2 receptor EP2 subtype. Briefly: cAMP Assay: A 384-well drug plate was prepared to contain test compounds, PGE2 and cAMP in 16 serial dilutions in triplicate, using a Biomek station. HEK-EBNA cells expressing a target PG receptor subtype (EP2 or EP4) were suspended in a stimulation buffer (HBSS, 0.1% BSA, 0.5 mM IBMX and 5 mM HEPES, pH 7.4) in a density of 10^4 cells/5 μl. The reaction was initiated by mixing 5 μL drug dilutions with 5 μl of HEK-EBNA cells in a well, carried out for 30 min at room temperature, and followed by the addition of 5 μl anti-cAMP acceptor beads in the control buffer with Tween-20 (25 mM NaCl, 0.03% Tween-20, 5 mM HEPES, pH7.4). After 30 min in the dark at room temperature, the mixtures were incubated with 15 μl biotinylated-cAMP/strpavidin donor beads in Lysis/Detection buffer (0.1% BSA, 0.3% Tween-20 and 5 mM HEPES, pH7.4) for 45 min at the room temperature. Fluorescence changes were read using a Fusion-alpha HT microplate reader. It counts as functional, cell-based, 104.

`O=C(O)c1ccc(CC[C@H]2C(=O)CC[C@@H]2/C=C/C(O)Cc2cccc(Br)c2)cc1` (single isomer, unassigned): in assay [1], the Ki was determined as 1170 nM. For the same molecule, the EC50 was 100 nM on Thromboxane A2 receptor and 8 nM in assay [2].

The values are drawn from ChEMBL document CHEMBL3886833, “Therapeutic prostaglandin receptor agonists” (2016).
